Data on one molecule can be found in publication PMC11335985, “Radiosynthesis and preclinical evaluation of a ^68Ga-labeled tetrahydroisoquinoline-based ligand for PET imaging of C-X-C chemokine receptor type 4 in an animal model of glioblastoma” (EJNMMI Radiopharmacy and Chemistry, 2024).

Broadly, the IC50 is the concentration that inhibits the measured activity by half. A higher IC50 goes with weaker potency in that assay.

For this assay, the target named is T1, CXCR4 (Homo sapiens, UniProt P61073).
T1 construct: full-length endogenous receptor on intact Jurkat T cells, untagged
T1 sequence (P61073 whole entry): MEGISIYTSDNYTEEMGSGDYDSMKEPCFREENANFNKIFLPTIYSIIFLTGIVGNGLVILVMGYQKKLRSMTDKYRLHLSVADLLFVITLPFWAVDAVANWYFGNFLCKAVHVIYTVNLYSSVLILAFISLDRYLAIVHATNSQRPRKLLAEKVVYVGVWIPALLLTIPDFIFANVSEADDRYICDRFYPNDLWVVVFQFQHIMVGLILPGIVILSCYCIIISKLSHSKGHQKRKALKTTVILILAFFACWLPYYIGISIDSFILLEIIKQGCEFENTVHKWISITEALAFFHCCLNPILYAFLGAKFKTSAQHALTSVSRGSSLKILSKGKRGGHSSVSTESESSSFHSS
The assay is described as follows: inhibition of CXCL12-AF647 binding to intact Jurkat cells, flow cytometry. The assay is classed as cell-based. To be noted: competition with 2.9 nM CXCL12-AF647; HBSS, 20 mM HEPES, 0.2% BSA, pH 7.4, RT; 15 min preincubation, 30 min with tracer; n = 3; chelator without gallium. An excerpt: inhibition of CXCL12-AF647 binding to intact Jurkat cells, flow cytometry on CXCR4

Molecule `O=C(O)CN1CCN(CC(=O)O)CCN(C(CCC(=O)NCc2ccc(NC(=S)NCCCCN(C[C@H]3Cc4ccccc4CN3)[C@H]3CCCc4cccnc43)cc2)C(=O)O)CCN(CC(=O)O)CC1` (stereo partly shown) [TD-01] had a half-inhibitory concentration (IC50) of 36.5 ± 1.4 nM.
